Key:
Assay type in all cases: cell-based, mouse
vdac2 -/- MEF cell lines [1] = assay: Cytochrome c release assay (subcellular fractionation, immunoblot), vdac2 -/- cells; details: 1 μM staurosporine
Protocol: (§1) FIG. 4C is a photograph depicting treatment of wt or vdac2 -/- MEF cell lines with 1 μM STS. The wt or vdac2 -/- MEF cell lines were subcellularly fractionated (see method) at indicated time points. Cytochrome c distribution in the cytosol versus mitochondria was assessed by immunoblot developed with an anti-cytochrome c antibody.
(§2) MEF cell lines treated with 1 μM staurosporine were harvested at various time points and lysed for 5 min in isotonic buffer containing 10 mM KCl, 5 mM MgCl2, 1 mM EDTA, 1 mM EGTA, 250 mM sucrose, 20 mM Hepes, pH 7.2, 0.025% digitonin, and complete protease inhibitors (Roche). Organelles that contain mitochondria were removed from the soluble cytosolic fraction by pelleting at 15000 g. Supernatant and mitochondrial pellets were solubilized in SDS-PAGE loading buffer and analyzed by an immunoblot, developed with an anti-cytochrome c Ab. […]
(§3) In contrast, the response of wt- and vdac2-dificient cells was similar when the extrinsic death pathway was activated by TNFα (FIG. 4E). […] BAK already underwent oligomerization within 5 hours after staurosporine treatment in vdac2 -/- cells but not wt cells, as assessed by gel filtration (FIG. 4F) (X. Roucou, S. Montessuit, B. Antonsson, J. C. Martinou, Biochem J 368, 915-21. (2002)). […]

wt MEF lines = assay: Cytochrome c fluorescence microscopy after staurosporine, wt MEF line; details: 1 μM STS, 4 hours
Protocol: (§4) FIG. 4D is a photograph depicting two-color fluorescence microscopy of wt and vdac2 -/- MEF lines at 4 hours following 1 μM STS. Red indicates cytochrome c and blue is Hoechst staining of DNA.
(§5) MEF cell lines treated with 1 μM staurosporine were harvested at various time points and lysed for 5 min in isotonic buffer containing 10 mM KCl, 5 mM MgCl2, 1 mM EDTA, 1 mM EGTA, 250 mM sucrose, 20 mM Hepes, pH 7.2, 0.025% digitonin, and complete protease inhibitors (Roche). Organelles that contain mitochondria were removed from the soluble cytosolic fraction by pelleting at 15000 g. Supernatant and mitochondrial pellets were solubilized in SDS-PAGE loading buffer and analyzed by an immunoblot, developed with an anti-cytochrome c Ab. Protein cross-linking, immunoblot, immunoprecipitation, isolation of mitochondria, cell viability assays, and anti-cytochrome c immunohistochemistry were described previously E. H. Cheng et al., Mol Cell 8, 705-11. (2001).

wt MEF cell lines [2] = assay: Cytochrome c release assay (subcellular fractionation, immunoblot), wt cells; details: 1 μM staurosporine
Protocol: as §1, §2, §3

wt MEF cell lines [3] = assay: BAK oligomerization by gel filtration after staurosporine, wt cells
Protocol: (§6) FIG. 4F is a photograph depicting mitochondria isolated from wt or vdac2 -/- MEF cell lines with or without treatment with STS for 5 hours were solubilized in 2% CHAPS buffer. 200 μg of lysate was subjected to Superdex 200 (HR 10/30) gel filtration column chromatography. Fractions were analyzed by an immunoblot developed with anti-BAK antibody.
(§7) The chromatographic step of Superdex 200 (HR 10/30, Amersham-Pharmacia) was performed on an automatic fast protein liquid chromatography (FPLC) station (Amersham-Pharmacia) at 4° C. […] Fractions of 0.6 ml were collected, precipitated by trichloroacetic acid, and analyzed by an immunoblot (fractions 16-31) developed with an anti-BAK Ab.
as §3

vdac2 -/- MEF lines = assay: Cytochrome c fluorescence microscopy after staurosporine, vdac2 -/- MEF line; details: 1 μM STS, 4 hours
Protocol: as §4, §5

vdac2 -/- MEF cell lines [4] = assay: BAK oligomerization by gel filtration after staurosporine, vdac2 -/- cells
Protocol: as §6, §7, §3

vdac2 -/- MEFs = assay: Re-expression of VDAC2 in vdac2 -/- MEFs, Annexin-V cell death; details: normal physiologic levels, 1.2 μM staurosporine 6 hr
Protocol: FIG. 3E is a histogram depicting infection of primary vdac2 -/- MEFs with retrovirus expressing GFP (MIG vector control) or VDAC2-IRES-GFP. At 36 hours the GFP-positive cells isolated by MoFlo sorting were treated with 1.2 μM staurosporine for 6 hr. Cell death was quantitated by flow cytometric detection of Annexin-V staining. Values shown are mean ±1 SD of three independent experiments.

Bax -/- MEFs = assay: Annexin-V cell death after retroviral expression of VDAC1 or VDAC2 in Bax -/- MEFs; details: Bax -/- cells
Protocol: (§8) FIG. 3A are two graphs illustrating Bax -/- or Bak -/- MEFs at 2 days following retroviral expression of VDAC1, VDAC2, or GFP (MIG vector control), wherein the Bax -/- or Bak -/- MEFs were treated with 1.2 μM staurosporine (STS). Cell death was quantitated by flow cytometric detection of Annexin-V staining at indicated time points. Values shown are mean ±1 SD of three independent experiments.
(§9) FIG. 3B is a histogram depicting Bax -/- or Bak -/- MEFs at 2 days following retroviral expression of VDAC2 or GFP (MIG vector control), wherein the Bax -/- or Bak -/- MEFs were infected with tBID-expressing retrovirus. Cell death was quantitated by flow cytometric detection of Annexin-V staining at 24 hr. Values shown are mean ±1 SD of three independent experiments.
as §8, with “6” for “3A”, “that depict” for “illustrating”, “10 μg/ml etoposide.” for “1.2 μM staurosporine (STS).”
(§10) Previous studies have shown that cells doubly deficient for BAX and BAK are resistant to intrinsic death stimuli, whereas cells singly deficient for BAX or BAK are still susceptible (M. C. Wei et al., Science 292, 727-30. (2001)). As VDAC2 interacts with BAK but not BAX, the ability of VDAC2 to modulate apoptosis mediated by BAK or BAX was tested. According to one hypothesis, VDAC2 might function as an inhibitor of BAK or VDAC2 itself might function as a proapoptotic factor once released from BAK. To address these alternatives VDAC 1 or VDAC2 was expressed in Bax -/- or Bak -/- singly deficient mouse embryonic fibroblasts (MEFs) followed by treatment with staurosporine or etoposide. […] Expression of VDAC2 inhibited tBID-induced apoptosis of Bax -/- cells but not Bak -/- cells, further supporting a selective role for VDAC2 in negatively regulating BAK-dependent apoptosis (FIG. 3B).

Bak -/- MEFs = assay: Annexin-V cell death after retroviral expression of VDAC1 or VDAC2 in Bak -/- MEFs; details: Bak -/- cells
Protocol: as §8, §9
as §8, with “6” for “3A”, “that depict” for “illustrating”, “10 μg/ml etoposide.” for “1.2 μM staurosporine (STS).”
as §10

[5] = retroviral expression, 1.2 μM staurosporine or 10 μg/ml etoposide, Annexin-V
[6] = tBID-expressing retrovirus, Annexin-V at 24 hr

## CN[C@@H]1C[C@H]2O[C@@](C)([C@@H]1OC)n1c3ccccc3c3c4c(c5c6ccccc6n2c5c31)C(=O)NC4 [staurosporine]
vdac2 -/- MEF cell lines [1]
  time of complete release of cytochrome c: ≤ 5 h
  time of partial release of cytochrome c into the cytosol: ≤ 3 h
Wt MEF lines
  cells with diffuse cytosolic staining for cytochrome c: 16%
Wt MEF cell lines [2]
  release of cytochrome c at 3 and 5 hours: had not initiated any release of cytochrome c
Wt MEF cell lines [3]
  time to BAK oligomerization: ~10 h
vdac2 -/- MEF lines
  cells with diffuse cytosolic staining for cytochrome c: 83%
vdac2 -/- MEF cell lines [4]
  time to BAK oligomerization: ≤ 5 h

B1: VDAC2: Voltage-Dependent Anion Channel-2, murine, retrovirally expressed (protein, UniProt Q60930 1-295, looked up)
Non-selective voltage-gated …: MAECCVPVCPRPMCIPPPYADLGKAARDIFNKGFGFGLVKLDVKTKSCSGVEFSTSGSSNTDTGKVSGTLETKYKWCEYGLTFTEKWNTDNTLGTEIAIEDQICQGLKLTFDTTFSPNTGKKSGKIKSAYKRECINLGCDVDFDFAGPAIHGSAVFGYEGWLAGYQMTFDSAKSKLTRSNFAVGYRTGDFQLHTNVNNGTEFGGSIYQKVCEDFDTSVNLAWTSGTNCTRFGIAAKYQLDPTASISAKVNNSSLIGVGYTQTLRPGVKLTLSALVDGKSFNAGGHKLGLALELEA
vdac2 -/- MEFs
  susceptibility to apoptosis after re-expression: reversed the increased susceptibility to apoptosis
Bax -/- MEFs; [5]
  apoptosis after staurosporine or etoposide: significantly inhibited apoptosis
Bax -/- MEFs; [6]
  tBID-induced apoptosis: inhibited
Bak -/- MEFs; [5]
  apoptosis after staurosporine or etoposide: no effect
Bak -/- MEFs; [6]
  tBID-induced apoptosis: not

From patent US20050085420A1, “Method of modulating apoptosis and compositions thereof” (priority 2003, published 2005)
